# In ChEMBL document CHEMBL5131487, “Synthesis and biological evaluation of tetrahydroisoquinoline-derived antibacterial compounds” (Bioorg Med Chem, 2022):
# Activity calls are given as the source filed them. The rule behind the calls is not given here.
# Key:
# Bacillus subtilis [1] = assay: Bactericidal activity against Bacillus subtilis 168 at 4 ug/ml incubated for 20 hrs in CAMHB followed by culturing onto CAMHA for 48 hrs by colony counting analysis; type: functional, organism-based; settings: dose 4.0 µg/ml, time 68.0 hrs
# [2] = Cytotoxicity against mouse 3T3-L1 cells assessed as cell viability at 25 ug/ml measured after 24 to 72 hrs by MTT assay relative to control; type: toxicity, cell-based; settings: at 25 µg/mL, time 24-72 hrs, read-out: Activity
# Vero = assay: (§1) Cytotoxicity against African green monkey Vero cells assessed as inhibition of cell growth at 50 ug/ml; type: toxicity, cell-based; settings: chlorocebus sabaeus, vero; dose 50 µg/ml
# Escherichia coli = assay: Antibacterial activity against Escherichia coli MG1655 assessed as inhibition of bacterial growth incubated for 20 hrs by CLSI broth microdilution method; type: functional
# Staphylococcus aureus [3] = assay: Antibacterial activity against Staphylococcus aureus ATCC 25923 assessed as inhibition of bacterial growth incubated for 20 hrs by CLSI broth microdilution method; type: functional
# Bacillus subtilis [4] = assay: Antibacterial activity against Bacillus subtilis 168 assessed as inhibition of bacterial growth incubated for 20 hrs by CLSI broth microdilution method; type: functional
# Staphylococcus aureus [5] = assay: Bactericidal activity against Staphylococcus aureus ATCC 25923 at 4 ug/ml incubated for 20 hrs in CAMHB followed by culturing onto CAMHA for 48 hrs by colony counting analysis; type: functional, organism-based; settings: dose 4.0 µg/ml, time 68.0 hrs
# Acinetobacter baylyi = assay: Antibacterial activity against Acinetobacter baylyi assessed as inhibition of bacterial growth incubated for 20 hrs by CLSI broth microdilution method; type: functional
# [6] = Induction of phenotypic changes in Bacillus subtilis 168 assessed as abundance of ghost cells at 4XMIC measured after 1 hr by phase contrast microscopic analysis; type: functional
# 3T3-L1 [7] = assay: Cytotoxicity against mouse 3T3-L1 cells assessed as reduction in cell viability at 25 ug/ml measured after 24 to 72 hrs by MTT assay; type: toxicity, cell-based; settings: time 24-72 hrs, dose 25 µg/ml
# Acinetobacter baumannii = assay: Antibacterial activity against Acinetobacter baumannii assessed as inhibition of bacterial growth incubated for 20 hrs by CLSI broth microdilution method; type: functional
# Enterococcus faecium = assay: Antibacterial activity against Enterococcus faecium assessed as inhibition of bacterial growth incubated for 20 hrs by CLSI broth microdilution method; type: functional
# [8] = as §1; type: toxicity, cell-based; settings: chlorocebus sabaeus, Vero cells, at 50 µg/mL
# Bacillus subtilis [9] = assay: Induction of phenotypic changes in Bacillus subtilis 168 assessed as bacterial population with localized swelling at 4XMIC measured after 1 hr by phase contrast microscopic analysis; type: functional
# Streptococcus pneumoniae = assay: Antibacterial activity against Streptococcus pneumoniae assessed as inhibition of bacterial growth incubated for 20 hrs by CLSI broth microdilution method; type: functional
# Bacillus subtilis [10] = assay: Induction of phenotypic changes in Bacillus subtilis 168 assessed as disruption of peptidoglycan synthesis by measuring inconsistency in NADA stain distribution throughout the cell at 4XMIC measured after 60 mins by NADA staining based fluorescent microscopy; type: functional
# Bacillus subtilis [11] = assay: Induction of phenotypic changes in Bacillus subtilis 168 assessed as bacterial population with bulging phenotype at 4XMIC measured after 1 hr by phase contrast microscopic analysis; type: functional
# [12] = system: Mycobacterium tuberculosis; assay: Antibacterial activity against Mycobacterium tuberculosis H37Rv assessed as inhibition of bacterial growth at 20 uM; type: functional
# Staphylococcus aureus [13] = assay: Antibacterial activity against Staphylococcus aureus ATCC 25923 assessed as inhibition of bacterial growth measured after repeated 30 day serial passage treatment by broth microdilution method; type: functional, organism-based
# [14] = system: Mycobacterium tuberculosis; assay: Antibacterial activity against Mycobacterium tuberculosis H37Rv assessed as inhibition of bacterial growth; type: functional
# 3T3-L1 [15] = assay: Cytotoxicity against mouse 3T3-L1 cells assessed as reduction in cell viability at 12.5 ug/ml measured after 24 hrs by MTT assay; type: toxicity, cell-based; settings: 3t3-l1, 24 h, dose 12.5 µg/ml
Compound,MIC95 (Escherichia coli),MIC95 (Staphylococcus aureus [3]),MIC95 (Bacillus subtilis [4]),further results
COc1cc2c(cc1OC)C[N+](Cc1cn(-c3ccc(OCc4ccccc4)c(F)c3)nn1)(Cc1cn(-c3ccc(OCc4ccccc4)c(F)c3)nn1)CC2,> 128 µg/mL,4 µg/mL,4 µg/mL,Activity (Bacillus subtilis [1]): Active; viability at 25 ug/ml [2]: > 85%; Activity (Vero): Non-Toxic; Activity (Staphylococcus aureus [5]): Active
COc1ccc(-n2cc(C[N+]3(Cc4cn(-c5ccc(OC)cc5)nn4)CCc4cc(OC)c(OC)cc4C3)nn2)cc1,> 128 µg/mL,> 128 µg/mL,> 128 µg/mL,
COc1cc2c(cc1OC)C[N+](Cc1cn(-c3ccc4ccccc4c3)nn1)(Cc1cn(-c3ccc4ccccc4c3)nn1)CC2,> 128 µg/mL,32 µg/mL,32 µg/mL,
COc1cc2c(cc1OC)C[N+](Cc1cn(-c3ccc(-c4ccccc4)cc3)nn1)(Cc1cn(-c3ccc(-c4ccccc4)cc3)nn1)CC2,> 128 µg/mL,32 µg/mL,,
COc1cc2c(cc1OC)C[N+](Cc1cn(-c3ccc(C(=O)N(C)C)cc3)nn1)(Cc1cn(-c3ccc(C(=O)N(C)C)cc3)nn1)CC2,> 128 µg/mL,> 128 µg/mL,> 128 µg/mL,
COc1cc2c(cc1OC)C[N+](Cc1cn(-c3ccc(C#N)cc3)nn1)(Cc1cn(-c3ccc(C#N)cc3)nn1)CC2,> 128 µg/mL,> 128 µg/mL,> 128 µg/mL,
COc1cc2c(cc1OC)C[N+](Cc1cn(-c3ccc(C(C)(C)C)cc3)nn1)(Cc1cn(-c3ccc(C(C)(C)C)cc3)nn1)CC2,> 128 µg/mL,4 µg/mL,4 µg/mL,MIC95 (Acinetobacter baylyi): 128 µg/mL; Activity (Bacillus subtilis [1]): Active; Activity [6]: >50%; Activity (3T3-L1 [7]): Toxic; MIC95 (Acinetobacter baumannii): 128 µg/mL; MIC95 (Enterococcus faecium): 8 µg/mL; inhibition at 50 ug/ml [8]: 89%; Activity (Bacillus subtilis [9]): 20%; MIC95 (Streptococcus pneumoniae): 8 µg/mL; Activity (Bacillus subtilis [10]): Active; Activity (Bacillus subtilis [11]): 10%; inhibition at 20 µM [12]: > 90%; Activity (Staphylococcus aureus [5]): Active; Activity (Staphylococcus aureus [13]): Active; MIC [14]: 6 µg/mL
COc1cc2c(cc1OC)C[N+](Cc1cn(-c3ccoc3)nn1)(Cc1cn(-c3ccoc3)nn1)CC2,> 128 µg/mL,> 128 µg/mL,> 128 µg/mL,
COc1cc2c(cc1OC)C[N+](Cc1cn(-c3ccc(C(F)(F)F)cc3C(F)(F)F)nn1)(Cc1cn(-c3ccc(C(F)(F)F)cc3C(F)(F)F)nn1)CC2,> 128 µg/mL,32 µg/mL,32 µg/mL,
COc1cccc(CC2c3cc(OC)c(OC)cc3CC[N+]2(Cc2cn(-c3ccc(C(C)(C)C)cc3)nn2)Cc2cn(-c3ccc(C(C)(C)C)cc3)nn2)c1 (centres undefined),> 128 µg/mL,4 µg/mL,,Activity (3T3-L1 [15]): Toxic
COc1cc2c(cc1OC)C[N+](Cc1cn(-c3ccc(Cl)cc3)nn1)(Cc1cn(-c3ccc(Cl)cc3)nn1)CC2,> 128 µg/mL,32 µg/mL,32 µg/mL,
COc1cc2c(cc1OC)C[N+](Cc1cn(-c3ccccc3)nn1)(Cc1cn(-c3ccccc3)nn1)CC2,> 128 µg/mL,> 128 µg/mL,,
COc1cc2c(cc1OC)C(Cc1ccccc1)[N+](Cc1cn(-c3ccc(C(C)(C)C)cc3)nn1)(Cc1cn(-c3ccc(C(C)(C)C)cc3)nn1)CC2 (centres undefined),> 128 µg/mL,2 µg/mL,,Activity (3T3-L1 [15]): Toxic
COc1cc2c(cc1OC)C[N+](Cc1cn(-c3ccc(OCc4ccccc4)cc3F)nn1)(Cc1cn(-c3ccc(OCc4ccccc4)cc3F)nn1)CC2,> 128 µg/mL,4 µg/mL,4 µg/mL,Activity (Bacillus subtilis [1]): Active; Activity (3T3-L1 [7]): Toxic; Activity (Staphylococcus aureus [5]): Active
COc1cc2c(cc1OC)C[N+](Cc1cn(-c3ccc(COc4ccccc4)cc3)nn1)(Cc1cn(-c3ccc(COc4ccccc4)cc3)nn1)CC2,> 128 µg/mL,32 µg/mL,32 µg/mL,
COc1cc2c(cc1OC)C[N+](Cc1cn(-c3ccc([N+](=O)[O-])cc3)nn1)(Cc1cn(-c3ccc([N+](=O)[O-])cc3)nn1)CC2,> 128 µg/mL,> 128 µg/mL,> 128 µg/mL,
COc1cc2c(cc1OC)C[N+](Cc1cn(-c3ccc(Cl)nc3Cl)nn1)(Cc1cn(-c3ccc(Cl)nc3Cl)nn1)CC2,> 128 µg/mL,> 128 µg/mL,> 128 µg/mL,
COc1cc2c(cc1OC)C[N+](Cc1cn(-c3cc(C(F)(F)F)cc(C(F)(F)F)c3)nn1)(Cc1cn(-c3cc(C(F)(F)F)cc(C(F)(F)F)c3)nn1)CC2,> 128 µg/mL,8 µg/mL,> 128 µg/mL,
